From the NIST ThermoML archive (doi:10.1016/j.jct.2016.03.026)

Assay: xn = mol fraction of the nth substance listed
Conditions: Fluid (supercritical or subcritical phases), x1 = 0.97; for speed of sound: 304.19 K, Frequency=5 MHz, Pulse-echo method; for mass density: 304.21 K, Vibrating tube method

O=C=O [carbon dioxide] + CO
Conditions	mass density [kg/m3]	speed of sound [m/s]
7850 kPa	713.81	–
7875 kPa	715.24	–
7900 kPa	716.69	–
7925 kPa	717.99	–
7950 kPa	719.19	–
7975 kPa	720.37	–
8000 kPa	721.57	–
8025 kPa	722.66	–
8050 kPa	723.78	–
8075 kPa	724.91	–
8100 kPa	725.92	–
8125 kPa	726.93	–
8150 kPa	728.01	–
8175 kPa	729.1	–
8200 kPa	730.14	–
8225 kPa	731.15	–
8250 kPa	732.12	–
8275 kPa	733.11	–
8300 kPa	734.02	–
8325 kPa	735.01	–
8350 kPa	735.91	–
8375 kPa	736.81	–
8400 kPa	737.68	–
8425 kPa	738.51	–
8450 kPa	739.43	–
8475 kPa	740.29	–
8500 kPa	741.14	–
8525 kPa	741.99	–
8550 kPa	742.83	–
8575 kPa	743.65	–
8600 kPa	744.47	–
8625 kPa	745.32	–
8650 kPa	746.1	–
8675 kPa	746.89	–
8700 kPa	747.67	–
8725 kPa	748.5	–
8750 kPa	749.21	–
8775 kPa	749.97	–
8800 kPa	750.73	–
8825 kPa	751.52	–
8850 kPa	752.22	–
8875 kPa	752.97	–
8900 kPa	753.68	–
8925 kPa	754.39	–
8950 kPa	755.11	–
8975 kPa	755.82	–
9000 kPa	756.48	–
9025 kPa	757.25	–
9050 kPa	757.93	–
9075 kPa	758.64	–
9100 kPa	759.25	–
9125 kPa	759.92	–
9150 kPa	760.55	–
9175 kPa	761.24	–
9200 kPa	761.88	–
9225 kPa	762.52	–
9250 kPa	763.15	–
9275 kPa	763.76	–
9300 kPa	764.36	–
9325 kPa	764.98	–
9350 kPa	765.65	–
9375 kPa	766.27	–
9400 kPa	766.88	–
9425 kPa	767.44	–
9450 kPa	768.06	–
9475 kPa	768.6	–
9500 kPa	769.12	–
9525 kPa	769.73	–
9550 kPa	770.22	–
9575 kPa	770.76	–
9600 kPa	771.35	–
9625 kPa	771.96	–
9650 kPa	772.5	–
9675 kPa	773.03	–
9700 kPa	773.62	–
9725 kPa	774.15	–
9750 kPa	774.65	–
9775 kPa	775.2	–
9800 kPa	775.72	–
9825 kPa	776.25	–
9850 kPa	776.81	–
9875 kPa	777.3	–
9900 kPa	777.81	–
9925 kPa	778.36	–
9950 kPa	778.83	–
9975 kPa	779.32	–
10000 kPa	779.86	–
10025 kPa	780.3	–
10050 kPa	780.81	–
10075 kPa	781.33	–
10100 kPa	781.81	–
10125 kPa	782.29	–
10150 kPa	782.79	–
10175 kPa	783.3	–
10200 kPa	783.77	–
10225 kPa	784.17	–
10250 kPa	784.67	–
10275 kPa	785.18	–
10300 kPa	785.65	–
10325 kPa	786.13	–
10350 kPa	786.55	–
10375 kPa	787.08	–
10400 kPa	787.51	–
10425 kPa	787.92	–
10450 kPa	788.38	–
10475 kPa	788.87	–
10500 kPa	789.3	–
10525 kPa	789.73	–
10550 kPa	790.18	–
10575 kPa	790.6	–
10600 kPa	791.05	–
65100 kPa	–	894.9
70230 kPa	–	919.7
75540 kPa	–	944.1
79980 kPa	–	963.6
90070 kPa	–	1005.1
100040 kPa	–	1043.2
109900 kPa	–	1078.3
119960 kPa	–	1112.5
140090 kPa	–	1173.8
159770 kPa	–	1228.8
180450 kPa	–	1282
